Data set [1] deals with mice. The experiment in a line: In vivo acute (14-day) oral toxicity study. The settings on record: for S.ALT / S.AST / S.Creatinine / S.D.Bilirubin / S.T.Bilirubin / S.Urea: 14 days after single dose, compounds 250 mg/kg oral, doxorubicin 15 mg/kg I.P; for Survival over the treatment period (14 days) / Physical or abnormal changes (body weight, skin, fur, eyes, behavior, overall appearance): single acute oral dose of 250 mg/kg; for Physical or abnormal changes (body weight, skin, fur, eyes, behavior, overall appearance): 14 days. The source says:
GPower 3.0.10 software was used to estimate the sample size needed for the experiment and the number of mice per group but, according to the Organization for Economic Cooperation and Development (OECD) Test Guidelines No. 407 (OECD, 2008 and updated 2017) and under the International Academy of Science’s Guide for the Care and Use of Laboratory Animals, as well as the ARRIVE guidelines, to use the least number of mice per group for the acute single dose oral toxicity test.
Animals were divided randomly into nine groups (5 animals per group). Before the experiment, the body weight (BW) of all mice was recorded. All mice were made to fast for 24 h and treated once (day zero) then carefully monitored for 14 days.
Normal control group: mice received saline orally once;
Negative control group: mice received vehicle (DMSO) orally once;
Positive control group: mice were injected with Dox (15 mg/kg BW, i.p.) once.
Isatin-sulfonamide-derivative-compound-treated groups (2a, 3a, 3d and 4b, 4c and 4d) of mice received 250 mg/kg BW of each orally once.
The animals’ BWs were recorded at the end of the 14 days of observation. Blood samples were collected from the retro-orbital plexus and allowed to clot. Sera were prepared by centrifugation at 4000 rpm for 15 min and then kept frozen at − 80 °C for liver and kidney function tests (LFTs and KFTs). Thereafter, mice were deprived of food overnight, euthanized, and sacrificed by cervical dislocation. Liver and kidney tissues were collected, washed with ice-cold saline, and weighed. Excised weighed livers and kidneys were fixed in a suitable buffer for histological examination.
Liver and kidney tissues were fixed in 10% neutral buffered formaldehyde overnight and then embedded in paraffin, […] in serial grades of alcohols, cleared in xylene, and were subjected to […], where 4 μm thick tissue sections were cut by rotatory microtome. Tissue sections were stained with hematoxylin and eosin (H and E) for histological examination using full HD light microscopic imaging system (Leica Microsystems GmbH, Wetzlar, Germany). Standard procedures for sample fixation and staining were done as previously described.

Data set [2] is described as follows: In vitro safety/cell viability MTT assay on normal RPE1 cells. The settings on record: human, RPE1 cells (noncancerous), normal RPE1 cells, MTT. The format is cell-based, human. On the technique in general: Tetrazolium dyes change colour on reduction, which living cells bring about.
The subject of data set [3] is HepG2 cells. Put plainly: MTT cytotoxicity assay on HepG2 cells. The format is cell-based. Particulars: Homo sapiens; for cytotoxicity at 100 ppm: 48 h, 100 p.p.m (μg/mL), read-out: % Death Rate at 100 p.p.m (μg/mL) HepG2; for IC50: HepG2, 48 h. As for the experimental part: (§1) MTT-based cell viability assay was carried out to evaluate the antiproliferation potential of the target compounds on HCC cell lines (HepG2 and Huh7). The half maximal inhibitory concentration (IC50) values were calculated against DMSO non-treated HepG2 cells (negative control) and Dox-treated HepG2 cells (positive control). The assay was conducted using 3-(4, 5-di-MethylThiazol-2-yl)-2,5-diphenyl Tetrazolium bromide (MTT) to test cell viability, according to the method described by Mosmann with minor changes. The yellow MTT is reduced in the viable cells to purple formazan. The insoluble formazan is solubilized by DMSO to colored solution measured spectrophotometrically. Briefly, cells were seeded in a 96-well plate at density of 1 × 10^4 cells/well for 24 h in 5% CO2 incubator at 37 °C to allow their adherence. […] After incubation, 20 μL of a 5 mg/mL MTT solution were mixed with the contents of each well, and the plate was incubated for another 4 h. Then, the medium was suctioned, and the wells were washed with PBS. After 2 h of drying, 200 μL of DMSO was added to each well. The plate was set on a shaker to dissolve the formazan crystals. Then, the absorbance was measured spectrophotometrically at 570 nm with a reference wavelength of 630 nm using ELX800 UV universal microplate reader (BioTek Instruments Inc., VT, Santa Clara, CA, USA).
(§2) All experiment conditions were tested in three replicates. The % cell viability was calculated from the following equation: (mean absorbance of treated sample/mean absorbance of negative control sample) × 100. The % death rate = 100 -% cell viability, and the inhibitory concentration of 50% (IC50) was measured from the exponential curve of viability against concentration (dose–response curve).

Data set [4] relates to Huh7 cells. The experiment in a line: MTT cytotoxicity assay on Huh7 cells. Type of data set: cell-based, human. The settings on record: for IC50: Homo sapiens, Huh-7, 48 h. As to the method:
as §1, §2

For data set [5], the system named is HepG2 cells. The experiment in a line: Annexin V/FITC-PI apoptosis assay. Type of data set: cell-based, human. Particulars: HepG2, IC50 of the compound, 24 h (method says 48 h). As for the experimental part:
Annexin V/PI double staining kit (eBiosciencesDx) was used to detect apoptotic activity of the selected isatin sulfonamide derivatives. The Annexin V corresponding signal provides a very sensitive marker for cellular apoptosis, while PI was used to detect necrotic or late apoptotic cells, identified by the loss of plasma integrity and loss of nuclear membranes.
Briefly, 1 × 10^5 cells/mL of HepG2 cells were seeded into a 6-well plate and incubated at 37 °C, 5% CO2, overnight. […] After time elapsed, trypsinization of cells was carried out. Washing was done by PBS once, followed by fixation using 70% ethanol. Fixed cells were stored at 4 °C for 2 h, then centrifuged at 500× g for 5 min. Again, cells were washed with PBS prior to staining. An amount of 200 μL of the staining solution (annexin V- fluorescein 5-isothiocyanate (FITC) and PI in binding buffer (10 mM HEPES, 140 mM NaCl, and 2.5 mM CaCl2 at pH 7.4)) were added to the cell suspension and incubated at 37 °C for 20 to 30 min in dark and analyzed with a fluorescence-activated cell sorter (FACS) (BD FACSCalibur, BD Biosciences, California, USA). Data were analyzed using ModFit LT v2.0 (Verity Software House, Topsham, Maine, USA).
These plots were divided into four regions corresponding to: • (1) Viable cells, which are negative to both probes (PI/FITC −/−), • (2) Apoptotic cells, which are PI negative and Annexin positive (PI/FITC −/+), • (3) Late apoptotic cells, which are both PI and Annexin positive (PI/FITC +/+), • (4) Necrotic cells, which are PI positive and Annexin negative (PI/FITC+/−).

Each structure is given as a SMILES string. Marks after values point to notes of the source that are not given here.

Usually CC50 stands for the concentration that lowers cell viability or growth by half. Lower therefore signals greater toxicity to the cells. What is called viability is a read-out of living cells in per cent, often relative to untreated cells. Low readings indicate a greater loss of cells, high ones better survival. Broadly, the IC50 is the concentration that inhibits the measured activity by half. Higher therefore signals weaker potency. For the molecule `CCOC(=O)/C(C#N)=C1\C(=O)Nc2ccc(S(=O)(=O)N3CCCCC3)cc21` [Compound 2a], in data set [1], the S.ALT is listed as 28.42 ± 0.27 ^^ U/L, the S.AST is on record as 37.11 ± 0.35 ^^ U/L, the S.Creatinine is given as 0.59 ± 0.04 ^^ mg/dL and the S.D.Bilirubin is listed as 0.16 ± 0.003 ^^ mg/dL. In addition, in data set [1], the S.T.Bilirubin was 0.65 ± 0.018 ^^ mg/dL; the S.Urea is on record as 52.24 ± 0.65 ^^ mg/dL; the “Survival over the treatment period (14 days)” value was “survived”; the “Physical or abnormal changes (body weight, skin, fur, eyes, behavior, overall appearance)” value (shortened to “Physical or abnormal changes”) is recorded as “No physical or abnormal changes were observed”. For the same molecule, in data set [2], the 50% cytotoxic concentration (CC50) at 48 h was determined as 40.3 ± 1.61 µM and the viability at 48 h, 100 p.p.m (μg/mL) amounted to 4.4%. In data set [3], the cytotoxicity at 100 ppm was 81.5% and half-maximal inhibition (IC50) was put at 54.6 ± 2 µM. The “% Death Rate at 100 p.p.m (μg/mL) Huh7” value in data set [4] (48 h, 100 p.p.m (μg/mL)) is reported as 100 * %. Moreover, in data set [4], half-maximal inhibition (IC50) required 40 ± 3.8 µM.
`N#C/C(C(N)=O)=C1/C(=O)Nc2ccc(S(=O)(=O)N3CCCCC3)cc21` [Compound 2b]: in data set [3], the cytotoxicity at 100 ppm was 10.2% and the half-maximal inhibitory concentration (IC50) was greater than 100 µM. The IC50 in data set [4] is greater than 100 µM.
Consider `Nc1cccc(C(=O)CC2(O)C(=O)Nc3ccc(S(=O)(=O)N4CCCCC4)cc32)c1` (centres unmarked) [Compound 3b], for which, in data set [3], the cytotoxicity at 100 ppm stood at 1.2%. In addition, the IC50 in data set [3] and in data set [4] was greater than 100 µM in each case.
As to `Nc1ccc(C(=O)CC2(O)C(=O)Nc3ccc(S(=O)(=O)N4CCCCC4)cc32)cc1` (centres unmarked) [Compound 3c], in data set [5], the “%Cell Death Late Apoptosis” value is 18.08%. Besides, in data set [3], the cytotoxicity at 100 ppm came out at 11.5% and the IC50 was greater than 100 µM. Besides, the IC50 in data set [4] was greater than 100 µM.
`O=C(CC1(O)C(=O)Nc2ccc(S(=O)(=O)N3CCCCC3)cc21)c1ccc(O)cc1` (centres unmarked) [Compound 3d]: in data set [3], the cytotoxicity at 100 ppm was 19.5% and the IC50 is greater than 100 µM. In data set [4], this molecule had an IC50 greater than 100 µM.
With `Cc1ccc(C(=O)/C=C2\C(=O)Nc3ccc(S(=O)(=O)N4CCCCC4)cc32)cc1` [Compound 4a], in data set [1], the S.ALT is listed as 28.14 ± 0.56 ^^ U/L, the S.AST is recorded as 36.51 ± 0.15 ^^ U/L, the S.Creatinine was 0.70 ± 0.02 ^^ mg/dL and the S.D.Bilirubin is reported as 0.17 ± 0.004 ^^ mg/dL. Further, in data set [1], the S.T.Bilirubin is 0.72 ± 0.019 ^^ mg/dL; the S.Urea is 55.10 ± 2.96 ^^ mg/dL; the “Survival over the treatment period (14 days)” value is recorded as “survived”; the “Physical or abnormal changes” value is on record as “No physical or abnormal changes were observed”. In data set [2], this molecule yielded a CC50 at 48 h of 21.9 ± 1.15 µM and a viability at 48 h, 100 p.p.m (μg/mL) of 0%. For the same molecule, in data set [3], the cytotoxicity at 100 ppm turned out to be 100% and the IC50 was found to be 12 ± 0.4 µM. The molecule further returned a 50% inhibitory concentration (IC50) in data set [4] greater than 100 µM.
As for `O=C1Nc2ccc(S(=O)(=O)N3CCCCC3)cc2/C1=C/C(=O)c1ccc(O)cc1` [Compound 4d], in data set [1], the S.ALT is 30.14 ± 0.93 ^^ U/L, the S.AST is on record as 38.72 ± 1.37 ^#,^ U/L, the S.Creatinine is on record as 0.85 ± 0.03 ^^ mg/dL and the S.D.Bilirubin was 0.18 ± 0.004 ^^ mg/dL. Further, in data set [1], the S.T.Bilirubin is listed as 0.69 ± 0.016 ^^ mg/dL; the S.Urea is reported as 48.18 ± 0.53 ^^ mg/dL; the “Survival over the treatment period (14 days)” value is reported as “survived”; the “Physical or abnormal changes” value was “No physical or abnormal changes were observed”. In addition, in data set [2], the CC50 at 48 h was found to be 11.9 ± 0.7 µM and the viability at 48 h, 100 p.p.m (μg/mL) was determined as 0%. Besides, in data set [3], the cytotoxicity at 100 ppm is 100% and the IC50 amounted to 13.3 ± 0.75 µM. The molecule also displayed an IC50 in data set [4] of 18.8 ± 0.8 µM.

These data come from article PMC8945686, “Anticancer Effects with Molecular Docking Confirmation of Newly Synthesized Isatin Sulfonamide Molecular Hybrid Derivatives against Hepatic Cancer Cell Lines” (Biomedicines, 2022).
